Structures can show the parent of a compound that is named as a salt. Numbered stars: 1 amine (or outer) side, 2 acyl side, 3 side chain; on linkers, the order of the positions; unused ones are H or OH. Peptide text beside a SMILES is read from it. * marks the point of attachment. pNA = O=[N+]([O-])c1ccc(N*)cc1; Suc = O=C(CCC(=O)[*:2])[*:1]; Cbz = O=C(OCc1ccccc1)*
Experiments:
Format in all cases: biochemical, Fervidobacterium pennavorans
[1] = target: T1, proteases of the enzyme composition from microorganism strain W (Fervidobacterium pennivorans, UniProt Q93LQ6); experiment: biochemical; details: for remaining activity at 1000 µM / remaining activity at 5000 µM: 1 h; for remaining activity at 1000 µM: pH 10, read-out: Residual act. (1 mM); for remaining activity at 5000 µM: pH 10, read-out: Residual act. (5 mM); for Residual act. (1 mM): inhibitor 1 mM
T1 construct: casein substrate, pH 10, 80 C
T1 sequence (Q93LQ6 150-699): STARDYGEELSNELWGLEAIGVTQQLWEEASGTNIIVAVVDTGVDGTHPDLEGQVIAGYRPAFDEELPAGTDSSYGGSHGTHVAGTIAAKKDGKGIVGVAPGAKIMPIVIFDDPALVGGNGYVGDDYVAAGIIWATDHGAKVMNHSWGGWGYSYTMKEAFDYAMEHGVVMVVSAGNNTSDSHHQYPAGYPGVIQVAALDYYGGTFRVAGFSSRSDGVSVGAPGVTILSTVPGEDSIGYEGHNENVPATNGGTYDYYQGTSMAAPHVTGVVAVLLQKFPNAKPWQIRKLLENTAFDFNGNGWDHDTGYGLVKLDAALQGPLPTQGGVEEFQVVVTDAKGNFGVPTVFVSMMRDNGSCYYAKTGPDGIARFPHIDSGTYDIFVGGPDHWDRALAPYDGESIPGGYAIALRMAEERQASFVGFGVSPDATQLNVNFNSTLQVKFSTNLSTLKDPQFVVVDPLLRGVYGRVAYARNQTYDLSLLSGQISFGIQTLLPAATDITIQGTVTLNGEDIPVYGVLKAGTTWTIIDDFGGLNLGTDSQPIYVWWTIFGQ
Experimental: (§1) 0.45 ml 0.25 % (w/v) casein solution (Hammersten Quality) in an appropriate B & R buffer (Britton & Robinson, J. Chem. Soc. (1931), p. 1456. A solution containing 0.4 M H3 PO4, 0.4M CH3 COOH and 0.4M H3 BO3 in water is adjusted to the desired pH with 0.2 N NaOH) is pipetted on ice with 0.05 ml enzyme-containing specimen into E-Cups and incubated, depending on the activity, up to 60 min at the optimal temperature for the enzyme (80° C.) and the optimal pH (10). The batch is then compounded for stopping off and precipitating the proteins with 0.5 ml 10 % (w/v) trichloroacetic acid (TCA), incubated for 15-30 min at room temperature and then centrifuged for 10 min at 13000 rpms in an Eppendorf centrifuge (Heraeus Sepatech, Osterode). The extinction of the clear supernatant is measured at 280 nm in a quartz cuvette against a non-incubated blank reading.
(§2) In order to determine the enzyme activity, a tyrosine calibration curve is recorded in the range of 0-1 μM/batch. An enzyme activity (1 unit) is defined as that amount which released 1 μmole aromatic amino acids/min. The following computation results from the rise of the calibration curve: [formula] Production of the enzyme composition
Phenylmethylsulfonyl fluoride (PMSF) and diisopropylfluorophosphate (DFP) bond to the OH group of the serine in the active center of serine proteases and inhibit the latter irreversibly. Ethylene diamine tetraacetate Na2 salt (EDTA) is a metal chelating agent and inhibits metalloproteases.
470 μl 0.25 % (w/v) casein in […], pH 10--buffer (B & R)
5 μl inhibitor stock [strain]solution (see below)
When using 5 μl inhibitor stock solution the final concentration corresponds to 1 mM. When using 25 μl inhibitor solution (final concentration 5 mM), only 450 μl substrate solution are accordingly used. The batches are at first incubated without substrate at room temperature (1 h) and then with substrate for 1 h at the temperature which is optimum for the enzyme.
After the incubation the reaction is stopped with 500 μl of a 10 % (w/v) solution of trichloroacetic acid and the remaining activity determined as described above. The following inhibitor solutions are used:
PMSF 17.3 % (w/v) in ethanol
EDTA 3.56 % (w/v) in H2 O bidistillate
Iodoacetate 14.4 % (w.v) in H2 O bidistillate

[2] = system: proteolytic activity of raw extract of strain W; experiment: Influence of metal ions on the proteolytic activity of the raw extract; details: 1 h room temperature with raw extract, then 1 h at 80° C. with 0.25 % substrate pH 10; for ca. % activity 1 mM: metal ion 1 mM; for ca. % activity 5 mM: metal ion 5 mM
Experimental: Cells of a fermenter culture are macerated (approximately 1 g/20 ml Na-phosphate 50 mM pH 6.8 buffer) by ultrasound. (15 min, 50 %, stage (setting) 6-7, average sonication peak, Branson Sonifier). After microscopic control of successful maceration the raw extract is centrifuged for 20 min, 4° C., 35,000 xg. The supernatant obtained in this manner is used for the enzyme tests.
as §1, §2
The metal ions are dissolved in a buffer, 50 mM Na--P; pH 6.8. 50 μl of this solution are incubated with 50 μl raw extract for 1 h at room temperature, then 400 μl substrate (0.25 %, pH 10) are added and incubated for 1 h at 80° C. TCA precipitation and determination of activity are carried out as described above.

[3] = system: proteases of cell-free raw extract of strain W; experiment: Hydrolysis of chromogenic peptide substrates by the proteases (E405 value); details: 17 hours at 60° C., 0.2 mM substrate in phosphate buffer pH 7, 0.3 mg/ml raw enzyme extract, measuring stretch 1 cm
Experimental: The hydrolysis of chromogenic peptide substrates by proteases of the […] (E405 value)
In order to determine the substrate specificity of the proteases the cited chromogenic peptide substrates are incubated in a final concentration of 0.2 mM together with cell-free raw extract.
The incubation takes place below the temperature optimum and pH optimum of the proteases in order to avoid a thermal and pH-dependent, non-enzymatic hydrolysis of the peptide substrates.
900 μl 0.2 mM (w/v) substrate solution in 50 mM Na-P-buffer, pH 7.0
100 μl enzyme specimen incubation for 17 h at 60° C.
The released p-nitroaniline is subsequently measured immediately against a non-incubated blank reading at an extinction of 405 nm.

[4] = 1 h preincubation at room temperature, then 1 h with casein, pH 10, optimum temperature, without inhibitor = 100%, approximate values

Row | Molecule | ca. % activity 1 mM [2] | ca. % activity 5 mM [2] | also measured
1 | O=C(O)CN(CCN(CC(=O)O)CC(=O)O)CC(=O)O [EDTA, Ethylene diamine tetraacetate Na2 salt] | – | – | remaining activity at 1000 µM [1]: 93%; remaining activity at 5000 µM [1]: 85%
2 | [Cl][Cu][Cl] [CuCl2] | 17% | 0% | –
3 | O=[Se]([O-])[O-].[Na+].[Na+] [NaSe2 O3] | 96% | 136% | –
4 | [Cl-].[Na+] [NaCl] | 86% | 116% | –
5 | [Cl-].[Cl-].[Mg+2] [MgCl2] | 171% | 125% | –
6 | CC(=O)N[C@@H](Cc1ccc(O)cc1)C(=O)Nc1ccc([N+](=O)[O-])cc1 [acetyl-Tyr-pNA] | – | – | E405 value (in comparison to blank value) [3]: below 0.1
7 | AgCl2 | 0% | 0% | –
8 | [Cl][Mn][Cl] [MnCl2] | 110% | 120% | –
9 | N=C(N)NCCCC(NC(=O)c1ccccc1)C(=O)Nc1ccc([N+](=O)[O-])cc1 (racemic) [benzoyl-DL-Arg-pNA] | – | – | E405 value (in comparison to blank value) [3]: below 0.1
10 | NCCCC[C@H](NC(=O)c1ccccc1)C(=O)Nc1ccc([N+](=O)[O-])cc1 [benzoyl-Lys-pNA] | – | – | E405 value (in comparison to blank value) [3]: below 0.1
11 | [Ca+2].[Cl-].[Cl-] [CaCl2] | 85% | 117% | –
12 | [Cl][Fe]([Cl])[Cl] [FeCl3] | 93% | 0% | –
13 | O=S(=O)([O-])[O-].[O]=[V+2] [VOSO4] | 87% | 44% | –
14 | O=S(=O)(F)Cc1ccccc1 [PMSF, Phenylmethylsulfonyl fluoride] | – | – | Residual act. (1 mM) [1, 4]: 14%; Residual act. (5 mM) ([1]; inhibitor 5 mM, 1 h preincubation at room temperature, then 1 h with casein, pH 10, optimum temperature, without inhibitor = 100%, approximate values): 10%
15 | O=C(O)CI [Iodoacetate] | – | – | remaining activity at 1000 µM [1]: 83%; remaining activity at 5000 µM [1]: 76%
16 | NCCc1ccc(S(=O)(=O)F)cc1 [Pefabloc SC] | – | – | Residual act. (1 mM) [1, 4]: 83%
17 | [Cl][Ni][Cl] [NiCl2] | 72% | 44% | –
18 | [Cl-].[Cl-].[Co+2] [CoCl2] | 143% | 187% | –
19 | O=C(O)CCC(=O)N[C@@H](Cc1ccccc1)C(=O)Nc1ccc([N+](=O)[O-])cc1 [N-succinyl-Phe-pNA] | – | – | E405 value (in comparison to blank value) [3]: > 0.5
20 | [Cl][Fe][Cl] [FeCl2] | 127% | 0% | –
21 | O=C(NCC(=O)N1CCC[C@H]1C(=O)Nc1ccc([N+](=O)[O-])cc1)OCc1ccccc1 [Z-Gly-Pro-pNA] (Cbz-Gly-Pro-pNA) | – | – | E405 value (in comparison to blank value) [3]: below 0.1
22 | [Na+].[Na+].[O]=[W](=[O])([O-])[O-] [NaWO4] | 75% | 134% | –
23 | [Cl-].[Cl-].[Zn+2] [ZnCl2] | 57% | 37% | –
24 | C[C@H](NC(=O)CCC(=O)O)C(=O)N[C@@H](C)C(=O)N1CCC[C@H]1C(=O)N[C@@H](Cc1ccccc1)C(=O)Nc1ccc([N+](=O)[O-])cc1 [N-succinyl-Ala-Ala-Pro-Phe-pNA] (Suc-AAPF-pNA) | – | – | E405 value (in comparison to blank value) [3]: > 0.5
25 | [Na+].[Na+].[O]=[Mo](=[O])([O-])[O-] [NcMoO4] | 91% | 95% | –
